# Measured values from patent publication US11351179B1, “Pharmaceutical compositions and methods for treatment of psychiatric disorders” (LA PharmaTech Inc., priority 2021, dated 2022).
# How the values were obtained:
# MDD and panic disorder = assay: Clinical case: patient with MDD and panic disorder treated orally once daily; assay type: in vivo, human; conditions: each drug given for 2 months before the composition
# Text: A patient had MDD and panic disorder. […] Because azelastine is approved for the treatment of allergic rhinitis and asthma, and the combination composition of azelastine and folic acid had never been expected to be used to treat patients with depression or anxiety, this dramatic clinical outcome which included a fast reduction of symptoms was unexpected. […] This composition with two mechanisms of action of anti-inflammation would provide a new solution for treating psychiatric diseases which are incurable by other options, such traditional SSRIs, NSRIs, benzodiazepines, and the like alone.
# [1] = test system: mild chronic depression and anxiety induced sleep disorder; assay: Clinical case: patient with mild chronic depression and anxiety induced sleep disorder treated once daily; assay type: in vivo, human; conditions: citalopram and lorazepam together for 3 months before the composition
# Method: A patient was diagnosed with mild chronic depression and anxiety induced sleep disorder and was treated with citalopram and lorazepam for 3 months. […] Then they were treated with a composition of folic acid (0.19 mg) and azelastine (2 mg) once daily. […] The inventors believe the hypothesis as explained in Example 1 above is applicable here as well. In this case, the composition of two mechanisms of action provided a new solution for treating their chronic depression and insomnia which could not be treated with other options, such traditional SSRIs, NSRIs, benzodiazepines, and the like alone.
Structure (SMILES),clinical improvement on prior treatment (MDD and panic disorder),improvement of symptoms on prior treatment [1]
O=C1CC2(CCCC2)CC(=O)N1CCCCN1CCN(c2ncccn2)CC1 [buspirone],no significant clinical improvement,
O=C1Nc2ccc(Cl)cc2C(c2ccccc2Cl)=NC1O (stereo not drawn) [lorazepam],,never improved to the level of their satisfaction
CN[C@H]1CC[C@@H](c2ccc(Cl)c(Cl)c2)c2ccccc21 [sertraline],no significant clinical improvement,
